Broadly, the IC50 is the concentration at which inhibition is half-maximal. As usually defined, the Ki is a measure of affinity in units of concentration, obtained from inhibition or displacement.

Experiment [1] concerns the target T1, rat membrane-bound aminopeptidase P (Rattus norvegicus, UniProt Q99MA2).
T1 sequence (Q99MA2 23-650): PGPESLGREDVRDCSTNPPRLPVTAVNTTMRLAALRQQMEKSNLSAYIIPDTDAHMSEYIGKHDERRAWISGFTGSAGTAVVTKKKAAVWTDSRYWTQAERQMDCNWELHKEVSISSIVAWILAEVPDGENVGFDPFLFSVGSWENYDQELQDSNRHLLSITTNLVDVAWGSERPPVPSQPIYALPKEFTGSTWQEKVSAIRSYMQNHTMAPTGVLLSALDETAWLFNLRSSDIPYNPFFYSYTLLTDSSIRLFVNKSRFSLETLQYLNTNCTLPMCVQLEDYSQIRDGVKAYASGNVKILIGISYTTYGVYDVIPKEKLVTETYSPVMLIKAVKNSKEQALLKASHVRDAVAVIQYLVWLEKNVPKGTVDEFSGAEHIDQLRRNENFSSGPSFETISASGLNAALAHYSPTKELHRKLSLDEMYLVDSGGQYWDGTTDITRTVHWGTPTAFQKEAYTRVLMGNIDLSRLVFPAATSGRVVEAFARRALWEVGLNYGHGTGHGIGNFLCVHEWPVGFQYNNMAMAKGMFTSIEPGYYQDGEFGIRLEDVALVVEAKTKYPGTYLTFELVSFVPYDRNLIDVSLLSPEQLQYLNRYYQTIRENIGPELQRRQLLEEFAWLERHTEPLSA
Conditions: cited from earlier work; for IC50: 0.5 mM arg = Pro-Pro in 0.1 M Hepes, pH 8.0, triplicate.

The target of experiment [2] is bovine membrane-bound aminopeptidase P. Conditions: cited from earlier work; for IC50: 0.5 mM arg = Pro-Pro in 0.1 M Hepes, pH 8.0, triplicate.
In another experiment the test system is aminopeptidase P. Briefly: Binding of aminopeptidase P cDNA fragment phage to wells coated with […] peptide, with competitors. On the set-up: species or system human. Conditions: 1 mg free peptide; apstatin 10 μg/ml; IgG 10 μg/ml. On the procedure:
The peptide was synthesized in a Symphony synthesizer (Rainin Instruments; Emeryville, Calif.), cyclized, and purified by HPLC. The peptide was immobilized on a 96 well Reacti-Bind® polystyrene strip plate (Pierce; Rockford, Ill.). The wells were then treated three times×200 μl SuperBlock® blocking buffer (Pierce).
A human breast carcinoma cDNA library on T7 phage obtained from Novagen was amplified in a single step by infecting BLT 5615 bacteria. Phage suspension (100 μl, 10^9 pfu/ml) in PBS was incubated in the wells for one hour; the wells were then washed five times with 200 μl PBS and once with elution buffer (Novagen) to elute phage bound with low and intermediate affinity. Phage bound to the immobilized peptide were subsequently recovered by incubating BLT 5615 bacteria in the wells for 10 minutes at room temperature.

Experiment [3] deals with human membrane-bound aminopeptidase P (Homo sapiens, UniProt O43895). As to conditions: 0.5 mM arg = Pro-Pro in 0.1 M Hepes, pH 8.0; triplicate; cited from earlier work.
The test system of experiment [4] is breast tissue. Briefly: In vivo phage homing: recovery of injected phage from tissues. On the set-up: species or system mice. Conditions: breast tissue as compared to control pancreatic tissue. How it is done: A CX7C library (10^9 plaque forming units) was injected into the tail vein of mice; after seven minutes, the mice were perfused through the heart, and phage rescued from breast tissue. The rescued phage were then amplified and re-injected in four additional consecutive rounds. The number of plaque forming units (pfu) recovered from breast tissue is shown (black bars). As a control, non-recombinant T7 phage were injected (white bars). In round five, the number of pfu of phage recovered from the pancreas also was determined (gray bar).
(§1) The number of pfu recovered from each organ is shown.
A phage display peptide library with the general structure of CX7C, where C is cysteine and X is any amino acid, was constructed in T7 phage essentially as follows. Briefly, complementary oligonucleotides that encoded the random peptide insert as NNK codons, and had 5′EcoRI and 3′HindIII overhangs, were annealed. The resulting double stranded DNA was phosphorylated with T4 polynucleotide kinase (Novagen; Madison, Wis.) and ligated into 1 ug of T7Select415-1b vector arms. The ligated product was directly added to 50 μl of packaging extract and incubated for two hours, yielding 10^8 pfu total recombinants. The recombinants were amplified in 500 ml of liquid culture. […] (Oxford, U.K.: Oxford University Press), 2001.
(§2) In vivo phage selection was performed as described previously with a few modifications. Briefly, mice were anesthetized with avertin and then injected intravenously with 10^9 plaque forming units (pfu) from the CX7C library. Seven minutes after the injection, the mice were perfused through the heart with 10 ml of phosphate buffered saline (PBS). Mammary tissue was then excised, weighed, and homogenized using a Medimachine (Dako, Denmark). The resulting single cells were spun down at 1500 rpm and washed five times with PBS. Phage adherent to the cells were rescued by infecting BL21 bacteria (Novagen), and the phage quantified by plaque assay.

In experiment [5] the test system is breast tissue. The experiment can be described thus: In vivo blocking of breast homing of phage by co-injected agents. As to conditions: mice. How it is done: as §1, §2
Another experiment has as its system mitochondrial membranes. Briefly: Mitochondrial swelling assay. As to conditions: at a concentration of 10 μM. An excerpt: In one embodiment, the invention provides a conjugate in which the antimicrobial peptide portion promotes disruption of mitochondrial membranes when internalized by eukaryotic cells. In particular, such an antimicrobial peptide preferentially disrupts mitochondrial membranes as compared to eukaryotic membranes. Mitochondrial membranes, like bacterial membranes but in contrast to eukaryotic plasma membranes, have a high content of negatively charged phospholipids. An antimicrobial peptide can be assayed for activity in disrupting mitochondrial membranes using, for example, an assay for mitochondrial swelling (as described in Example I) or another assay well known in the art. […] An antimicrobial peptide that induces significant mitochondrial swelling at, for example, 50 μM, 40 μM, 30 μM, 20 μM, 10 μM, or less, is considered a peptide that promotes disruption of mitochondrial membranes.

Experiment [6] concerns the target monkey membrane-bound aminopeptidase P. As to conditions: 0.5 mM arg = Pro-Pro in 0.1 M Hepes, pH 8.0; triplicate; cited from earlier work.

Square brackets hold non-standard residues; d marks the D form. Ends that are not written are not given here. Peptide text beside a SMILES is read from it. * marks the point of attachment. X1 = NC(Cc1ccccc1)C(O)C(=O)*; βAla = NCCC(=O)O

human membrane-bound aminopeptidase P, sequence (O43895 22-649): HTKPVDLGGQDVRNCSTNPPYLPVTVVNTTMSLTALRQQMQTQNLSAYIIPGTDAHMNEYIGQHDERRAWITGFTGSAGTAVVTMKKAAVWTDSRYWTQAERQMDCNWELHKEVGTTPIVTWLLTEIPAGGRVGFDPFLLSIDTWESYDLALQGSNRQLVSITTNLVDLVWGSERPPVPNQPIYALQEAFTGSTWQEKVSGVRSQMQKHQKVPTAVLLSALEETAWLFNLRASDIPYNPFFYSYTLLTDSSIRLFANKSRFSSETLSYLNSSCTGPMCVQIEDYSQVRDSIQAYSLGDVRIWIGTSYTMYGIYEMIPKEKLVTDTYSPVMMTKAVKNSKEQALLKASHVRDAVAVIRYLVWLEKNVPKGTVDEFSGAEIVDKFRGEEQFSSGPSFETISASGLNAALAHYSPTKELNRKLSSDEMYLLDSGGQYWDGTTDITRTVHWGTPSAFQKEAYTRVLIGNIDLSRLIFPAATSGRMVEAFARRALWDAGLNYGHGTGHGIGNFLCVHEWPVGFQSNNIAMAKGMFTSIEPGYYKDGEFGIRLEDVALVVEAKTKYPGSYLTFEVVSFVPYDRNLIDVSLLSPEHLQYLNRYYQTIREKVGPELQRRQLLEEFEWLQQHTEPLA

Consider `CC(C)C[C@H](N)[C@H](O)C(=O)N1CCC[C@H]1C(=O)N[C@@H](C)C(N)=O` [Compound 8], for which the IC50 in experiment [1] is 100 µM; in experiment [2], 470 µM.
With `C[C@H](NC(=O)[C@@H]1CCCN1C(=O)[C@@H]1CCCN1C(=O)[C@@H](O)[C@H](N)Cc1ccccc1)C(N)=O` [Compound 1, apstatin], the “effect on binding of aminopeptidase P encoding phage to insolubilized CPGPEGAGC peptide” value in the experiment with aminopeptidase P is reported as “blocked”. Also, the results for the IC50 in experiment [1] and in experiment [2] were 4.1 µM and 9.4 µM, respectively. Further, the values for the Ki in experiment [1] (Yoshimoto et al. 1994) and in experiment [2] (in brackets in the IC50 cell of Table 2) were 2.6 µM and 7.8 µM, respectively.
Consider `CC(NC(=O)C1CCCN1C(=O)C1CCCN1C(=O)C(O)C(N)Cc1ccccc1)C(=O)NCCC(=O)NC(CS)C(N)=O` (stereo not shown) [Compound 4] (X1-PPA[βAla]C-NH2; configuration not given here), for which the IC50 in experiment [1] was 0.66 µM.
Turning to `CC(NC(=O)C1CCCN1C(=O)C1CCCC1S)C(N)=O` (stereo not shown) [Compound 10], the IC50 in experiment [3] was 29 µM; in experiment [1], 3.4 µM.
`C[C@H](NC(=O)[C@@H]1CCCN1C(=O)C1CCCCC1C(=O)NO)C(N)=O` (single isomer, unassigned) [Compound 12]: the IC50 in experiment [1] is 37 µM; in experiment [2] it was 50 µM.
For `CC(C)C[C@H](N)[C@@H](O)C(=O)N1CCC[C@H]1C(=O)N[C@@H](C)C(N)=O` [Compound 6], the results for the IC50 in experiment [1] and in experiment [2] were 0.31 µM and 2.1 µM, respectively.
With “CPGPEGAGC (also: cyclized (mode not given here)) [breast homing cyclic peptide, synthesized, cyclized and purified by HPLC]”, the “selective homing identified by in vivo panning” value (“selective homing identified” below) with breast tissue [4] was “selectively homing to breast tissue”. The “effect on binding of aminopeptidase P encoding phage to insolubilized CPGPEGAGC peptide” value in the experiment on aminopeptidase P was “blocked”. Also, the “effect of coinjection on recovery of CPGPEGAGC phage from breast tissue” value in the experiment on breast tissue [5] (0.5 ml of 2 mg/ml free peptide coinjected) is reported as “markedly reduced”. For the same molecule, in the experiment with breast tissue [5] (anti-aminopeptidase P antiserum or 1 mg free peptide), the “effect on breast homing / recovery of CRSS phage” value is reported as “no effect”.
Regarding CRTS [CRTS (SEQ ID NO: 4)], the “selective homing identified” value with breast tissue [4] is on record as “selectively homing to breast tissue”.
In the case of D(KLAKLAK)2, the mitochondrial swelling result in the experiment with mitochondrial membranes is listed as “marked mitochondrial swelling”.
In the case of CRSS [CRSS (SEQ ID NO: 3)], in the experiment with breast tissue [4], the “selective homing identified” value is on record as “selectively homing to breast tissue”.
As for `C[C@H](NC(=O)[C@@H]1CCCN1C(=O)C1CCCC1S)C(N)=O` (single isomer, unassigned) [Compound 11], the IC50 is 390 µM in experiment [3], 150 µM in experiment [1], 300 µM in experiment [2] and 300 µM in experiment [6].
On to `NC(=O)C1CCCN1C(=O)C1CCCN1C(=O)C(O)C(N)Cc1ccccc1` (stereo not shown) [Compound 3], for which the results for the IC50 in experiment [1] and in experiment [2] were 390 µM and 1300 µM, respectively.
On to `CC(C)C[C@@H](N)[C@@H](O)C(=O)N1CCC[C@H]1C(=O)N[C@@H](C)C(N)=O` [Compound 7], for which the IC50 in experiment [1] is 19 µM; in experiment [2] it was 50 µM.
With `CC(C)C[C@@H](N)[C@H](O)C(=O)N1CCC[C@H]1C(=O)N[C@@H](C)C(N)=O` [Compound 5], the IC50 in experiment [1] is 0.56 µM; in experiment [2], 4.5 µM.

The values above are taken from patent US7666391B2, “Breast homing peptides and methods of identifying same using aminopeptidase P” (Burnham Institute for Medical Research, priority 2001, dated 2010).
